Data reported in patent US10858384B2, “Synthetic molecule constructs” (KODE BIOTECH LIMITED, priority 2004, dated 2020).

Experiments:
[1] = test system: endometrial cells and embryos; assay: Attachment of transformed endometrial cells to modified embryos; format: cell-based; details: 15 minutes at 37° C.
Method: Modified embryos (BioG-Avidin-BioIgG^B and BioG-Avidin-BioIgM^A) were prepared in accordance with the methods described in the specification accompanying the international application no. PCT/NZ03/00059 (published as WO03/087346).
Two concave glass slides were prepared, one with two wells of synthetic glycolipid Atri-sp-Ad-DOPE (I) inserted endometrial cells and the other with two wells of synthetic glycolipid Btri-sp-Ad-DOPE (VI) inserted endometrial cells.
The embryos were surrounded with endometrial cells. The wells were covered with mineral oil and incubated for 15 minutes at 37° C. Using a wide bore handling pipette each group of embryos were carefully transferred to a fresh drop of M2 media. The embryos were gently washed. The embryos were gently transferred into 2 μL of M2 media on a marked microscope slide. Each drop was overlaid with mineral oil
Under a central plane of focus on an Olympus microscope the number of endometrial cells adhered to the embryos in each group was assessed. The number of cells adhered to each embryo was recorded.

[2] = test system: group O red blood cells (RBCs); assay: Diamed gel-card agglutination of group O RBCs transformed at 37° C. with synthetic glycolipids; format: cell-based, human; parameters: scale not given here; details: for Agglutination, Diamed gel-cards, Albaclone anti-A / Agglutination, Diamed gel-cards, Bioclone anti-A: 0.025 mg/mL
Method: (§1) Washed packed group O red blood cells (RBCs) (3 parts by volume) and the synthetic glycolipid solution (1 part by volume, varying concentrations) were added to an eppendorf tube. The tube was incubated in a 37° C. waterbath for one hour, mixing every 15 minutes. […]
(§2) Tube serology and Diamed gel-card results for RBCs transformed with the different synthetic molecule constructs are provided in Table 38. Results for the stability of the RBCs transformed with the different synthetic glycolipids at different concentrations are provided in Tables 39 to 44.

RBCs [3] = assay: Detectable transformation ability of synthetic glycolipids (agglutination); format: cell-based; details: agglutination with the appropriate antibody
Description: The synthetic glycolipid must also be able to insert into the membrane and be recognisable to the appropriate antibody for transformation to be detected by agglutination. Initial tests on the molecules were to establish solubility and thus eliminate those molecules that were unsuitable for use in the transformation of cells.

RBCs [4] = assay: Column agglutination of RBCs transformed with sterile-filtered vs unfiltered synthetic glycolipid; format: cell-based; details: for Column agglutination: 0.01 mg/mL, anti-A BioClone
Description: Some Atri-sp-Ad-DOPE (I) had been sterile-filtered through a 0.2 μm filter. To investigate whether transformation would be the same with this product a comparative trial was done.

[5] = Solubility of synthetic glycolipids in hot PBS; format: physicochemical; details: hot PBS
Description: In the context of this description the phrase “water soluble” means a stable, single phase system is formed when the synthetic molecule construct is contacted with water or saline (such as PBS) in the absence of organic solvents or detergents, and the term “solution” has a corresponding meaning.
For use in the transformation of cells the first criterion that synthetic glycolipids must satisfy is that they are soluble in aqueous solvents, e.g. phosphate buffered saline.
Initial tests on the molecules were to establish solubility and thus eliminate those molecules that were unsuitable for use in the transformation of cells.

RBCs [6] = assay: Evaluation of insertion of different lipid tails by agglutination with the relevant antisera; format: cell-based; parameters: scale not given here
Description: Transformation of RBCs with synthetic glycolipids with different lipid tails was first evaluated (Tables 22 and 24).

RBCs [7] = assay: Insertion efficiency: post-transformation supernatant solutions, tube serology; format: cell-based
Method: The post-transformation supernatant solutions (from Atri-sp-Ad-DOPE (I) at 0.08 mg/mL, 0.05 mg/mL and 0.03 mg/mL, and Btri-sp-Ad-DOPE (VI) at 0.6 mg/mL, 20 μL) were added neat and in a 1:2 dilution to washed, packed RBCs (60 μL). The tubes were incubated in a 37° C. waterbath for one hour, with mixing taking place every 15 minutes.
The transformed RBCs were washed 3× with PBS and then suspended in Cellstab™ at the appropriate concentration for serology testing.

[8] = test system: group O red blood cells (RBCs); assay: Tube serology of group O RBCs transformed at 37° C. with synthetic glycolipids; format: cell-based, human; parameters: Albaclone anti-A, Tube / Bioclone anti-A, Tube: scale not given here
Method: as §1, §2

## CCCCCCCC/C=C\CCCCCCCC(=O)OC[C@H](COP(=O)(O)OCCNC(=O)CCCCC(=O)NCCCO[C@@H]1O[C@H](CO)[C@H](O)[C@H](O[C@H]2O[C@H](CO)[C@H](O)[C@H](O)[C@H]2NC(C)=O)[C@H]1O[C@@H]1O[C@@H](C)[C@@H](O)[C@@H](O)[C@@H]1O)OC(=O)CCCCCCC/C=C\CCCCCCCC [Atri-sp-Ad-DOPE (I)]
[1]; embryos modified with BioG-Avidin-BioIgG^B
  Average number of endometrial cells attached to modified embryos: 2.3
[1]; embryos modified with BioG-Avidin-BioIgM^A
  Average number of endometrial cells attached to modified embryos: 7.25
[2]; 0.01 mg/mL
  Albaclone anti-A, Diamed: 0
  Bioclone anti-A, Diamed: 0
[2]; Day 2, Alsevers
  Agglutination, Diamed gel-cards, Albaclone anti-A: 0
[2]; Day 2, Cellstab
  Agglutination, Diamed gel-cards, Albaclone anti-A: 0
[2]; Day 8, Alsevers
  Agglutination, Diamed gel-cards, Albaclone anti-A: 0
[2]; Day 8, Cellstab
  Agglutination, Diamed gel-cards, Albaclone anti-A: 0
[2]; Day 15, Alsevers
  Agglutination, Diamed gel-cards, Albaclone anti-A: 0
[2]; Day 15, Cellstab
  Agglutination, Diamed gel-cards, Albaclone anti-A: 0
[2]; Day 22, Alsevers
  Agglutination, Diamed gel-cards, Albaclone anti-A: 0
  Agglutination, Diamed gel-cards, Bioclone anti-A: w+
[2]; Day 22, Cellstab
  Agglutination, Diamed gel-cards, Albaclone anti-A: 0
[2]; Day 29, Alsevers
  Agglutination, Diamed gel-cards, Albaclone anti-A: 0
  Agglutination, Diamed gel-cards, Bioclone anti-A: w+
[2]; Day 29, Cellstab
  Agglutination, Diamed gel-cards, Albaclone anti-A: 0
[2]; Day 43, Alsevers
  Agglutination, Diamed gel-cards, Albaclone anti-A: w+
[2]; Day 43, Cellstab
  Agglutination, Diamed gel-cards, Albaclone anti-A: 0
[2]; Day 50, Alsevers
  Agglutination, Diamed gel-cards, Albaclone anti-A: w+
[2]; Day 50, Cellstab
  Agglutination, Diamed gel-cards, Albaclone anti-A: 0
[2]; Day 57, Cellstab
  Agglutination, Diamed gel-cards, Albaclone anti-A: 0
  Agglutination, Diamed gel-cards, Bioclone anti-A: w+
[2]; Day 63, Cellstab
  Agglutination, Diamed gel-cards, Albaclone anti-A: 0
  Agglutination, Diamed gel-cards, Bioclone anti-A: 0
[2]; Day 71, Cellstab
  Agglutination, Diamed gel-cards, Albaclone anti-A: 0
  Agglutination, Diamed gel-cards, Bioclone anti-A: 0
[2]; Day 86, Cellstab
  Agglutination, Diamed gel-cards, Albaclone anti-A: 0
  Agglutination, Diamed gel-cards, Bioclone anti-A: 0
RBCs [3]
  Detectable transformation ability: Yes
RBCs [4]
  Difference in transformation between sterile-filtered (0.2 μm) and unfiltered preparation: no significant difference
RBCs [4]; sterile-filtered
  Column agglutination: 0
RBCs [4]; unfiltered
  Column agglutination: 0
[5]
  Water solubility: Yes
RBCs [6]; 10 μg/mL, Alba anti-A, first series
  Agglutination score: 0
RBCs [6]; 10 μg/mL, Bio anti-A, first series
  Agglutination score: 0
RBCs [6]; 20 μg/mL, Alba anti-A, first series
  Agglutination score: 0
RBCs [6]; 20 μg/mL, Bio anti-A, first series
  Agglutination score: 0
RBCs [6]; 30 μg/mL, Alba anti-A, first series
  Agglutination score: 0
RBCs [6]; 30 μg/mL, Bio anti-A, first series
  Agglutination score: w+
RBCs [6]; 40 μg/mL, Alba anti-A, first series
  Agglutination score: w+
RBCs [6]; 50 μg/mL, Alba anti-A, first series
  Agglutination score: w+
RBCs [6]; 1000 μg/mL, DBA
  Agglutination score: 0
RBCs [7]; 1:2, pre-trans conc 0.03 mg/mL
  Score (tube serology): 0
RBCs [7]; 1:2, pre-trans conc 0.05 mg/mL
  Score (tube serology): 0
RBCs [7]; 1:2, pre-trans conc 0.08 mg/mL
  Score (tube serology): 0
RBCs [7]; neat, pre-trans conc 0.03 mg/mL
  Score (tube serology): 0
RBCs [7]; neat, pre-trans conc 0.05 mg/mL
  Score (tube serology): 0
RBCs [7]; neat, pre-trans conc 0.08 mg/mL, 37° C. 1 h
  Score (tube serology): 0
[8]; 0.01 mg/mL
  Albaclone anti-A, Tube: 0
  Bioclone anti-A, Tube: 0
[8]; 0.02 mg/mL
  Albaclone anti-A, Tube: 0
  Bioclone anti-A, Tube: 0
[8]; 0.025 mg/mL, Day 8, Alsevers
  Agglutination, manual tube serology, Albaclone anti-A: w+
[8]; 0.025 mg/mL, Day 8, Cellstab
  Agglutination, manual tube serology, Albaclone anti-A: vw
[8]; 0.025 mg/mL, Day 15, Alsevers
  Agglutination, manual tube serology, Albaclone anti-A: 0
  Agglutination, manual tube serology, Bioclone anti-A: Vw
[8]; 0.025 mg/mL, Day 15, Cellstab
  Agglutination, manual tube serology, Albaclone anti-A: 0
[8]; 0.025 mg/mL, Day 22, Alsevers
  Agglutination, manual tube serology, Albaclone anti-A: 0
  Agglutination, manual tube serology, Bioclone anti-A: w+
[8]; 0.025 mg/mL, Day 44, Cellstab
  Agglutination, manual tube serology, Albaclone anti-A: w+
  Agglutination, manual tube serology, Bioclone anti-A: w+
[8]; 0.03 mg/mL
  Albaclone anti-A, Tube: 0
  Bioclone anti-A, Tube: w+
[8]; 0.04 mg/mL
  Albaclone anti-A, Tube: w+
[8]; 0.05 mg/mL
  Albaclone anti-A, Tube: w+
[8]; 0.05 mg/mL, Day 15, Cellstab
  Agglutination, manual tube serology, Albaclone anti-A: w+
